Measurements reported in the NIST ThermoML archive (doi:10.1007/s10765-010-0773-1).
± gives the expanded uncertainty stated by the source.

Assay: xn = mol fraction of the nth substance listed
Conditions: 101 kPa, Liquid; for mass density: Vibrating tube method; for speed of sound: Pulse-echo method

BrCBr [dibromomethane] + CCCCCCC
mass density (288.15 K, x1 = 0.1019): 779.65 ± 0.27 kg/m3 | mass density (288.15 K, x1 = 0.1838): 861.49 ± 0.31 kg/m3 | mass density (288.15 K, x1 = 0.2536): 937.65 ± 0.37 kg/m3 | mass density (288.15 K, x1 = 0.3055): 998.83 ± 0.46 kg/m3 | mass density (288.15 K, x1 = 0.4064): 1130.32 ± 0.67 kg/m3 | mass density (288.15 K, x1 = 0.5029): 1274.13 ± 0.93 kg/m3 | mass density (288.15 K, x1 = 0.6023): 1444.97 ± 0.95 kg/m3 | mass density (288.15 K, x1 = 0.6525): 1541.56 ± 1 kg/m3 | mass density (288.15 K, x1 = 0.7016): 1644.24 ± 1.1 kg/m3 | mass density (288.15 K, x1 = 0.8003): 1878.69 ± 1.2 kg/m3 | mass density (288.15 K, x1 = 0.8961): 2149.52 ± 1.5 kg/m3 | mass density (288.15 K, x1 = 1): 2509.06 ± 1.9 kg/m3 | speed of sound (292.87 K, x1 = 1): 960.63 ± 1.5 m/s | speed of sound (292.88 K, x1 = 0.9019): 946.13 ± 1.5 m/s | speed of sound (292.89 K, x1 = 0.1062): 1104 ± 1.6 m/s | speed of sound (292.89 K, x1 = 0.2032): 1066.3 ± 1.6 m/s | speed of sound (292.89 K, x1 = 0.304): 1032.1 ± 1.6 m/s | speed of sound (292.9 K, x1 = 0.405): 1002.4 ± 1.6 m/s | speed of sound (292.9 K, x1 = 0.4998): 979.49 ± 1.5 m/s | speed of sound (292.91 K, x1 = 0.7043): 946.92 ± 1.5 m/s | speed of sound (292.91 K, x1 = 0.8031): 941.84 ± 1.5 m/s | speed of sound (292.92 K, x1 = 0.6048): 959.47 ± 1.5 m/s | mass density (293.14 K, x1 = 0.2536): 932.03 ± 0.37 kg/m3 | mass density (293.14 K, x1 = 0.4064): 1123.66 ± 0.65 kg/m3 | mass density (293.14 K, x1 = 0.6023): 1436.76 ± 0.93 kg/m3 | mass density (293.14 K, x1 = 0.7016): 1635.05 ± 1.1 kg/m3 | mass density (293.15 K, x1 = 0.1019): 774.91 ± 0.26 kg/m3 | mass density (293.15 K, x1 = 0.1838): 856.29 ± 0.31 kg/m3 | mass density (293.15 K, x1 = 0.3055): 992.87 ± 0.45 kg/m3 | mass density (293.15 K, x1 = 0.5029): 1266.74 ± 0.92 kg/m3 | mass density (293.15 K, x1 = 0.6525): 1532.85 ± 0.99 kg/m3 | mass density (293.15 K, x1 = 0.8003): 1868.4 ± 1.2 kg/m3 | mass density (293.15 K, x1 = 0.8961): 2138.01 ± 1.4 kg/m3 | mass density (293.15 K, x1 = 1): 2496.03 ± 1.9 kg/m3 | mass density (298.14 K, x1 = 0.1838): 851.06 ± 0.3 kg/m3 | mass density (298.14 K, x1 = 0.2536): 926.36 ± 0.37 kg/m3 | mass density (298.14 K, x1 = 0.3055): 986.88 ± 0.45 kg/m3 | mass density (298.14 K, x1 = 0.6023): 1428.45 ± 0.92 kg/m3 | mass density (298.14 K, x1 = 0.7016): 1625.79 ± 1.1 kg/m3 | mass density (298.14 K, x1 = 0.8961): 2126.46 ± 1.4 kg/m3 | speed of sound (298.15 K, x1 = 0.2032): 1045.8 ± 1.6 m/s | speed of sound (298.15 K, x1 = 0.9019): 931.96 ± 1.5 m/s | speed of sound (298.15 K, x1 = 1): 947.15 ± 1.5 m/s | mass density (298.15 K, x1 = 0.1019): 770.15 ± 0.26 kg/m3 | mass density (298.15 K, x1 = 0.4064): 1116.96 ± 0.65 kg/m3 | mass density (298.15 K, x1 = 0.5029): 1259.28 ± 0.91 kg/m3 | mass density (298.15 K, x1 = 0.6525): 1524.09 ± 0.98 kg/m3 | mass density (298.15 K, x1 = 0.8003): 1858.05 ± 1.2 kg/m3 | mass density (298.15 K, x1 = 1): 2482.97 ± 1.8 kg/m3 | speed of sound (298.16 K, x1 = 0.1062): 1082.4 ± 1.6 m/s | speed of sound (298.16 K, x1 = 0.304): 1012.7 ± 1.6 m/s | speed of sound (298.17 K, x1 = 0.4998): 962 ± 1.5 m/s | speed of sound (298.17 K, x1 = 0.8031): 926.99 ± 1.5 m/s | speed of sound (298.18 K, x1 = 0.405): 984.03 ± 1.5 m/s | speed of sound (298.18 K, x1 = 0.7043): 931.29 ± 1.5 m/s | speed of sound (298.19 K, x1 = 0.6048): 942.98 ± 1.5 m/s | speed of sound (303.11 K, x1 = 1): 934.52 ± 1.5 m/s | speed of sound (303.13 K, x1 = 0.1062): 1062.1 ± 1.6 m/s | speed of sound (303.13 K, x1 = 0.2032): 1026.6 ± 1.6 m/s | speed of sound (303.13 K, x1 = 0.304): 994.46 ± 1.5 m/s | speed of sound (303.13 K, x1 = 0.9019): 918.63 ± 1.5 m/s | speed of sound (303.14 K, x1 = 0.8031): 913 ± 1.5 m/s | mass density (303.14 K, x1 = 0.6023): 1420.11 ± 0.92 kg/m3 | speed of sound (303.15 K, x1 = 0.405): 966.75 ± 1.5 m/s | speed of sound (303.15 K, x1 = 0.4998): 945.56 ± 1.5 m/s | speed of sound (303.15 K, x1 = 0.7043): 916.56 ± 1.5 m/s | mass density (303.15 K, x1 = 0.1019): 765.35 ± 0.26 kg/m3 | mass density (303.15 K, x1 = 0.1838): 845.79 ± 0.3 kg/m3 | mass density (303.15 K, x1 = 0.2536): 920.67 ± 0.37 kg/m3 | mass density (303.15 K, x1 = 0.3055): 980.85 ± 0.45 kg/m3 | mass density (303.15 K, x1 = 0.4064): 1110.22 ± 0.64 kg/m3 | mass density (303.15 K, x1 = 0.5029): 1251.79 ± 0.9 kg/m3 | mass density (303.15 K, x1 = 0.6525): 1515.27 ± 0.97 kg/m3 | mass density (303.15 K, x1 = 0.7016): 1616.48 ± 1 kg/m3 | mass density (303.15 K, x1 = 0.8003): 1847.66 ± 1.2 kg/m3 | mass density (303.15 K, x1 = 0.8961): 2114.87 ± 1.4 kg/m3 | mass density (303.15 K, x1 = 1): 2469.88 ± 1.8 kg/m3 | speed of sound (303.17 K, x1 = 0.6048): 927.45 ± 1.5 m/s | speed of sound (308.1 K, x1 = 0.2032): 1007.5 ± 1.6 m/s | speed of sound (308.1 K, x1 = 1): 921.89 ± 1.5 m/s | speed of sound (308.11 K, x1 = 0.9019): 905.33 ± 1.5 m/s | speed of sound (308.12 K, x1 = 0.1062): 1041.9 ± 1.6 m/s | speed of sound (308.12 K, x1 = 0.304): 976.3 ± 1.5 m/s | speed of sound (308.12 K, x1 = 0.4998): 929.18 ± 1.5 m/s | speed of sound (308.13 K, x1 = 0.405): 949.39 ± 1.5 m/s | speed of sound (308.13 K, x1 = 0.8031): 899.01 ± 1.5 m/s | speed of sound (308.14 K, x1 = 0.6048): 911.94 ± 1.5 m/s | speed of sound (308.14 K, x1 = 0.7043): 901.84 ± 1.5 m/s | mass density (308.15 K, x1 = 0.1019): 760.52 ± 0.26 kg/m3 | mass density (308.15 K, x1 = 0.1838): 840.49 ± 0.3 kg/m3 | mass density (308.15 K, x1 = 0.2536): 914.94 ± 0.37 kg/m3 | mass density (308.15 K, x1 = 0.3055): 974.78 ± 0.45 kg/m3 | mass density (308.15 K, x1 = 0.4064): 1103.44 ± 0.64 kg/m3 | mass density (308.15 K, x1 = 0.5029): 1244.25 ± 0.9 kg/m3 | mass density (308.15 K, x1 = 0.6023): 1411.72 ± 0.91 kg/m3 | mass density (308.15 K, x1 = 0.6525): 1506.41 ± 0.97 kg/m3 | mass density (308.15 K, x1 = 0.7016): 1607.12 ± 1 kg/m3 | mass density (308.15 K, x1 = 0.8003): 1837.22 ± 1.1 kg/m3 | mass density (308.15 K, x1 = 0.8961): 2103.24 ± 1.4 kg/m3 | mass density (308.15 K, x1 = 1): 2456.76 ± 1.8 kg/m3 | mass density (313.14 K, x1 = 0.1019): 755.67 ± 0.26 kg/m3 | mass density (313.14 K, x1 = 0.5029): 1236.67 ± 0.89 kg/m3 | mass density (313.14 K, x1 = 0.6525): 1497.49 ± 0.96 kg/m3 | mass density (313.15 K, x1 = 0.1838): 835.16 ± 0.3 kg/m3 | mass density (313.15 K, x1 = 0.2536): 909.16 ± 0.37 kg/m3 | mass density (313.15 K, x1 = 0.3055): 968.68 ± 0.45 kg/m3 | mass density (313.15 K, x1 = 0.4064): 1096.62 ± 0.63 kg/m3 | mass density (313.15 K, x1 = 0.6023): 1403.28 ± 0.9 kg/m3 | mass density (313.15 K, x1 = 0.7016): 1597.72 ± 1 kg/m3 | mass density (313.15 K, x1 = 0.8003): 1826.75 ± 1.1 kg/m3 | mass density (313.15 K, x1 = 0.8961): 2091.58 ± 1.4 kg/m3 | mass density (313.15 K, x1 = 1): 2443.59 ± 1.8 kg/m3 | speed of sound (313.27 K, x1 = 1): 908.83 ± 1.5 m/s | speed of sound (313.28 K, x1 = 0.2032): 987.55 ± 1.5 m/s | speed of sound (313.28 K, x1 = 0.9019): 891.54 ± 1.5 m/s | speed of sound (313.29 K, x1 = 0.1062): 1021 ± 1.5 m/s | speed of sound (313.3 K, x1 = 0.304): 957.58 ± 1.5 m/s | speed of sound (313.31 K, x1 = 0.405): 931.52 ± 1.5 m/s | speed of sound (313.31 K, x1 = 0.4998): 912.23 ± 1.5 m/s | speed of sound (313.31 K, x1 = 0.7043): 886.55 ± 1.5 m/s | speed of sound (313.31 K, x1 = 0.8031): 884.49 ± 1.5 m/s | speed of sound (313.32 K, x1 = 0.6048): 895.85 ± 1.5 m/s | mass density (318.15 K, x1 = 0.1019): 750.77 ± 0.26 kg/m3 | mass density (318.15 K, x1 = 0.1838): 829.78 ± 0.3 kg/m3 | mass density (318.15 K, x1 = 0.2536): 903.35 ± 0.36 kg/m3 | mass density (318.15 K, x1 = 0.3055): 962.53 ± 0.44 kg/m3 | mass density (318.15 K, x1 = 0.4064): 1089.75 ± 0.63 kg/m3 | mass density (318.15 K, x1 = 0.5029): 1229.04 ± 0.88 kg/m3 | mass density (318.15 K, x1 = 0.6023): 1394.79 ± 0.89 kg/m3 | mass density (318.15 K, x1 = 0.6525): 1488.53 ± 0.95 kg/m3 | mass density (318.15 K, x1 = 0.7016): 1588.27 ± 1 kg/m3 | mass density (318.15 K, x1 = 0.8003): 1816.27 ± 1.1 kg/m3 | mass density (318.15 K, x1 = 0.8961): 2079.95 ± 1.4 kg/m3 | mass density (318.15 K, x1 = 1): 2430.37 ± 1.8 kg/m3
